# What was measured:
# Test in all cases: biochemical
# Design in all cases: DiscoveRx KINOMEscan competition binding, percent of DMSO control signal at 100 nM
# Conditions in all cases: read-out: Fig. 4a / Percent Control / Compound 1; percent of DMSO control, competition binding
# [1] = target: ACVR1B (Homo sapiens, UniProt P36896)
# [2] = target: T1, AMPK-alpha2 (Homo sapiens, UniProt P54646)
# T1 construct: gene PRKAA2
# [3] = target: RET (Homo sapiens, UniProt P07949)
# [4] = target: LIMK2 (Homo sapiens, UniProt P53671)
# [5] = target: PAK1 (Homo sapiens, UniProt Q13153)
# [6] = target: AURKA (Homo sapiens, UniProt O14965)
# [7] = target: NEK11 (Homo sapiens, UniProt Q8NG66)
# [8] = target: PIM3 (Homo sapiens, UniProt Q86V86)
# [9] = target: T2, TRKB (Homo sapiens, UniProt Q16620)
# T2 construct: gene NTRK2
# [10] = target: STK36 (Homo sapiens, UniProt Q9NRP7)
# [11] = target: TSSK1B (Homo sapiens, UniProt Q9BXA7)
# [12] = target: KIT(L576P) (Homo sapiens, UniProt P10721, L576P)
# [13] = target: ROCK1 (Homo sapiens, UniProt Q13464)
# [14] = target: T3, MEK3 (Homo sapiens, UniProt P46734)
# T3 construct: gene MAP2K3
# [15] = target: ULK1 (Homo sapiens, UniProt O75385)
# [16] = target: T4, JNK2 (Homo sapiens, UniProt P45984)
# T4 construct: gene MAPK9
# [17] = target: MAPKAPK2 (Homo sapiens, UniProt P49137)
# [18] = target: MAP4K4 (Homo sapiens, UniProt O95819)
# [19] = target: PLK3 (Homo sapiens, UniProt Q9H4B4)
# [20] = target: T5, PFTAIRE2 (Homo sapiens, UniProt Q96Q40)
# T5 construct: gene CDK15
# [21] = target: T6, RSK4(Kin.Dom.1-N-terminal) (Homo sapiens, UniProt Q9UK32)
# T6 construct: gene RPS6KA6; Kin.Dom.1-N-terminal
# [22] = target: PRKCH (Homo sapiens, UniProt P24723)
# [23] = target: EGFR(G719S) (Homo sapiens, UniProt P00533, G719S)
# [24] = target: T7, DCAMKL1 (Homo sapiens, UniProt O15075)
# T7 construct: gene DCLK1
# [25] = target: HIPK4 (Homo sapiens, UniProt Q8NE63)
# 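Note: KINOMEscan kinase panel binding assay, signal normalized between DMSO as 100% and a positive control compound as 0%.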
# Sequence of STK36 (Q9NRP7 whole entry): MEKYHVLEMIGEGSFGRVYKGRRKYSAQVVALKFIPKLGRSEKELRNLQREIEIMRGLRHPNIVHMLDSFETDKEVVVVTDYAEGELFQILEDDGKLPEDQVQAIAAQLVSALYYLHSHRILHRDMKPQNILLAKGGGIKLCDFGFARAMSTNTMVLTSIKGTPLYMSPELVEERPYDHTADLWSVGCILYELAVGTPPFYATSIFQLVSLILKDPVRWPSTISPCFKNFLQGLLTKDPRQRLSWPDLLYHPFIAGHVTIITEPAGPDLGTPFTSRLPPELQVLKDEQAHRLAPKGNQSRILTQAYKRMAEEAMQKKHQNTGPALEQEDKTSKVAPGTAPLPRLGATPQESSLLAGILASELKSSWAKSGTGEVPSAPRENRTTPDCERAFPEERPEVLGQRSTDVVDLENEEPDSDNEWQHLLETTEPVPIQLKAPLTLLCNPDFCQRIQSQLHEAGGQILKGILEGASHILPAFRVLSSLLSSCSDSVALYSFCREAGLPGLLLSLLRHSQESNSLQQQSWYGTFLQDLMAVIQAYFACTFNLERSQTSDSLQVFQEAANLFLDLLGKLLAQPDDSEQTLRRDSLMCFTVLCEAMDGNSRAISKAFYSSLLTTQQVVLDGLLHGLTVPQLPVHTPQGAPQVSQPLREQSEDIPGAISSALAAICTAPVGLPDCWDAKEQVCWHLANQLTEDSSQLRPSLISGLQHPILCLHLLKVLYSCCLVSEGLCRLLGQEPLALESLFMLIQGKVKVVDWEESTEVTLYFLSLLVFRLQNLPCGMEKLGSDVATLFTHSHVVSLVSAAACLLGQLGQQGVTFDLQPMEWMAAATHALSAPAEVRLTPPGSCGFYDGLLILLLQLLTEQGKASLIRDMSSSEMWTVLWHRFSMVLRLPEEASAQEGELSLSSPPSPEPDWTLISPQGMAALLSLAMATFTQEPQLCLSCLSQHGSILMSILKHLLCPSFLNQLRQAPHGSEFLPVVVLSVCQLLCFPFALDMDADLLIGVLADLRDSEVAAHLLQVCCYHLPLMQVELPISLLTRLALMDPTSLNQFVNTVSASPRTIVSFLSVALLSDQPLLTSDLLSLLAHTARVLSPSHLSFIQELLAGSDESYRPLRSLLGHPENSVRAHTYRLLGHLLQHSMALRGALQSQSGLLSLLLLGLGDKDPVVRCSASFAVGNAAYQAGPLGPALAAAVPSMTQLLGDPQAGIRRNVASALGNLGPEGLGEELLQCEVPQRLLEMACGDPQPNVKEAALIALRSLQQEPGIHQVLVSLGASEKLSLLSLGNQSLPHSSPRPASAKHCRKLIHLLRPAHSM
# Sequence of RET (P07949 whole entry): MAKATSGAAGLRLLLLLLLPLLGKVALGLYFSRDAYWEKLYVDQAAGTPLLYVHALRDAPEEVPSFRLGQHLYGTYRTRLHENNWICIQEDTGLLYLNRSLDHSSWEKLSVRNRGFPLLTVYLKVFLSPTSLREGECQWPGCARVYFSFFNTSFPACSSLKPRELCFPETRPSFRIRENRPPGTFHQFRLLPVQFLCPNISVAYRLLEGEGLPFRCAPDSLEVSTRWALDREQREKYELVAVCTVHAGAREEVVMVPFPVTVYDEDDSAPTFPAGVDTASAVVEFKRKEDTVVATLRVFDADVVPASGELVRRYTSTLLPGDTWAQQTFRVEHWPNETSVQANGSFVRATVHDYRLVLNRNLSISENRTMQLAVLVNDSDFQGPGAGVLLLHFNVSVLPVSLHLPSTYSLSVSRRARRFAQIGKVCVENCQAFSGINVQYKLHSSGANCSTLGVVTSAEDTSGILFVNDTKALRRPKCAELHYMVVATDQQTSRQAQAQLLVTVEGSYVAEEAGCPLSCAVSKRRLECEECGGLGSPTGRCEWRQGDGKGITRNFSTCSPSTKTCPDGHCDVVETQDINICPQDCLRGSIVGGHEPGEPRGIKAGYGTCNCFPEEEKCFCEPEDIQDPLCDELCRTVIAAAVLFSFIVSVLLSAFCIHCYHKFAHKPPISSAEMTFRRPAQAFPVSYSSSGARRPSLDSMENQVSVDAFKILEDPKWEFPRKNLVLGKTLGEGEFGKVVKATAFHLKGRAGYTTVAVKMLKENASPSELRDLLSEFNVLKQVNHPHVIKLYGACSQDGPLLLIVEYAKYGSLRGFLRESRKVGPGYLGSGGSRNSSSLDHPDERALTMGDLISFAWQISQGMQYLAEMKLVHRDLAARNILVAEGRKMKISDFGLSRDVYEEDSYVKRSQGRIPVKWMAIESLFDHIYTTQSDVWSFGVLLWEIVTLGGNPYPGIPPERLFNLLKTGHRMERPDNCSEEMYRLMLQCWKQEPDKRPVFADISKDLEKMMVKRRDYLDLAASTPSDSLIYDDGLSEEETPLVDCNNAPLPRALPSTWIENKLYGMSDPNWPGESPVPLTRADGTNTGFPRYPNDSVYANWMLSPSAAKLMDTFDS
# Sequence of LIMK2 (P53671 whole entry): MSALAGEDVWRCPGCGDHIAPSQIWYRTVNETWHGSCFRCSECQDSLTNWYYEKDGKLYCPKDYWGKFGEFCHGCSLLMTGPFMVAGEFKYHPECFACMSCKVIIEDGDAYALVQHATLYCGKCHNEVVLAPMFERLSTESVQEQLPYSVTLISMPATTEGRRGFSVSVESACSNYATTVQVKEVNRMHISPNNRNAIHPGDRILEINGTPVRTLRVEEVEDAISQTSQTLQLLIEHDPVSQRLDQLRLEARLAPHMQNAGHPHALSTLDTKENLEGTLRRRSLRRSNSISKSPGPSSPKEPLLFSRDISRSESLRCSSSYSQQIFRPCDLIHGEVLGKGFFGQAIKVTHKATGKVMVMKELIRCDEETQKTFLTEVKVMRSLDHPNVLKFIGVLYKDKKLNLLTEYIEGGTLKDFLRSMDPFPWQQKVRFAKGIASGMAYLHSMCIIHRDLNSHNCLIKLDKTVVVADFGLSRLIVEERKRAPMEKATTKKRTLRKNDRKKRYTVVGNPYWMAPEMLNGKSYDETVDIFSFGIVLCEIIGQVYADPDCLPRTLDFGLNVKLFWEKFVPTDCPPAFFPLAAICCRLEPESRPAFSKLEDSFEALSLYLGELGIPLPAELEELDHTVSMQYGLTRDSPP
# T1 sequence (P54646 whole entry): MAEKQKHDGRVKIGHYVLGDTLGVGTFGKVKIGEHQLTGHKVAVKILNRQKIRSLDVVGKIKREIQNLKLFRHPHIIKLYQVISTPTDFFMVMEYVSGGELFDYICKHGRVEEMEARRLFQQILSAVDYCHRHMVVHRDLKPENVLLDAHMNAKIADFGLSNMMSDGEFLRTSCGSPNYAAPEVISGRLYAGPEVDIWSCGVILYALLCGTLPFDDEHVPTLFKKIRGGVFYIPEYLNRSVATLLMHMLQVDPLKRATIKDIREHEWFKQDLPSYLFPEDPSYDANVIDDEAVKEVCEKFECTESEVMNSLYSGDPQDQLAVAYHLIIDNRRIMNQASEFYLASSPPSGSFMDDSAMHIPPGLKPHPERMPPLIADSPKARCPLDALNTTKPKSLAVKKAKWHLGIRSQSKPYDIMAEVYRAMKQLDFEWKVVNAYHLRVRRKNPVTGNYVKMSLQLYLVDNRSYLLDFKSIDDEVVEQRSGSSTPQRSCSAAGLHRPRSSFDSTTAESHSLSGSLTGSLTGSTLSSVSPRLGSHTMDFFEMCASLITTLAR
# T7 sequence (O15075 whole entry): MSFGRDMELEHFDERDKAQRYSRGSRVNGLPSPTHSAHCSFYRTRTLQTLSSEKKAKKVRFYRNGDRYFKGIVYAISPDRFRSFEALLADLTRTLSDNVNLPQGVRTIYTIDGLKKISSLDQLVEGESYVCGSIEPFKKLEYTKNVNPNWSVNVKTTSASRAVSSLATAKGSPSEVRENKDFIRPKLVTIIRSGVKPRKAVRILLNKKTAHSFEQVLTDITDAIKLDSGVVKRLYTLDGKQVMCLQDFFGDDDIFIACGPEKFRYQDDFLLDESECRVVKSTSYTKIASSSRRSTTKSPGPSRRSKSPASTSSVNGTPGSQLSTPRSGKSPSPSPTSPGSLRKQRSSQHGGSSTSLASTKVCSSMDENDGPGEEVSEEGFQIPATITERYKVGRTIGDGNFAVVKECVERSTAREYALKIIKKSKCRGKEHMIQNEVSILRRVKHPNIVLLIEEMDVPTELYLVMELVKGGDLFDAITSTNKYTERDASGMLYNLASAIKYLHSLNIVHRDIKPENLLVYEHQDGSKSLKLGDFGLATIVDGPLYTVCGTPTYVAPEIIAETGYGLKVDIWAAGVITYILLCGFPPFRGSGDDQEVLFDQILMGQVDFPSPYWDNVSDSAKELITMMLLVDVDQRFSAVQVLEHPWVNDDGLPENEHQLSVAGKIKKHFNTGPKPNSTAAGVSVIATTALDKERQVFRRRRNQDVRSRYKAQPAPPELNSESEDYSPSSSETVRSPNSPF
# Sequence of PRKCH (P24723 whole entry): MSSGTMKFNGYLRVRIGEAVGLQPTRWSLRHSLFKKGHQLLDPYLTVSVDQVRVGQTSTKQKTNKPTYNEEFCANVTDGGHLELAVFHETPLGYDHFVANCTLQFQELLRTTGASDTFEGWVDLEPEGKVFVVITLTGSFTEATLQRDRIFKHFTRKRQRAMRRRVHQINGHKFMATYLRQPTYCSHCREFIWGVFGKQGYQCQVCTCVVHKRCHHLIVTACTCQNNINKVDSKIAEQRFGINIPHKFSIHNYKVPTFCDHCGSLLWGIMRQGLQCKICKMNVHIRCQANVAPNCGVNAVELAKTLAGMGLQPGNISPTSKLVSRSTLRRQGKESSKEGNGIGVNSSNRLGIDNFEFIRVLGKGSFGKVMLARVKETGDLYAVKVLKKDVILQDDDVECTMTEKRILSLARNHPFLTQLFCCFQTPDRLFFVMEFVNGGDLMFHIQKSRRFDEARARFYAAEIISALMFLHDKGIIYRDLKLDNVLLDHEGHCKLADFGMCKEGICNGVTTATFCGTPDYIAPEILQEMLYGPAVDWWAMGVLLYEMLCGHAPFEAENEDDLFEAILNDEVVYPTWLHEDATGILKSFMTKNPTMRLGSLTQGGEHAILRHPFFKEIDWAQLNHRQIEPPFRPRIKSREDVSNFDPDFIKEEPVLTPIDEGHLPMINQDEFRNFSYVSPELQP
structure (smiles),measurement,setting,value
Cc1cnc2nc1Nc1cccc(c1)COCc1cc(ccc1OCCN1CCCC1)N2 [Compound 1],remaining binding at 0.1 µM,[1],100%
same,remaining binding at 0.1 µM,[2],97%
same,remaining binding at 0.1 µM,[3],96%
same,remaining binding at 0.1 µM,[4],92%
same,remaining binding at 0.1 µM,[5],100%
same,remaining binding at 0.1 µM,[6],38%
same,remaining binding at 0.1 µM,[7],69%
same,remaining binding at 0.1 µM,[8],100%
same,remaining binding at 0.1 µM,[9],40%
same,remaining binding at 0.1 µM,[10],97%
same,remaining binding at 0.1 µM,[11],92%
same,remaining binding at 0.1 µM,[12],14%
same,remaining binding at 0.1 µM,[13],88%
same,remaining binding at 0.1 µM,[14],76%
same,remaining binding at 0.1 µM,[15],52%
same,remaining binding at 0.1 µM,[16],50%
same,remaining binding at 0.1 µM,[17],100%
same,remaining binding at 0.1 µM,[18],82%
same,remaining binding at 0.1 µM,[19],99%
same,remaining binding at 0.1 µM,[20],85%
same,remaining binding at 0.1 µM,[21],64%
same,remaining binding at 0.1 µM,[22],91%
same,remaining binding at 0.1 µM,[23],91%
same,remaining binding at 0.1 µM,[24],90%
same,remaining binding at 0.1 µM,[25],79%

# From paper PMC10382584, “Macrocyclization of linear molecules by deep learning to facilitate macrocyclic drug candidates discovery” (Nature Communications, 2023)
